Earlier results, collected in PMC7395068, “The evolution of strategies to minimise the risk of human drug-induced liver injury (DILI) in drug discovery and development” (Archives of Toxicology, 2020).

Key:
[1] = assignment in Dawson 2012; ref Dawson 2012; cited from earlier work
[2] = test system: rBsep; set-up: method as in Dawson 2012; conditions: ref Dawson 2012, cited from earlier work

CO[C@H]1/C=C/O[C@@]2(C)Oc3c(C)c(O)c4c(O)c(cc(O)c4c3C2=O)NC(=O)/C(C)=C\C=C\[C@H](C)[C@H](O)[C@@H](C)[C@@H](O)[C@@H](C)[C@H](OC(C)=O)[C@@H]1C [rifamycin SV]
+VE: In vivo DILI [1] | Inhibition of rBsep cutoff<1& cmax u>.2 ([2]; cutoff<1& cmax u>.2) | Inhibition of rBsep cutoff<3 ([2]; cutoff<3)
